Experiments:
Format in all cases: physicochemical
[1] = Miscibility test with HFC-32
Description: (§1) First, 0.2 g of the oil [S1] was charged into a glass tube and then, the whole was cooled by liquid nitrogen. The interior of the glass tube was evacuated and, about 1.5 g of HFC-134a was introduced into the glass tube. The glass tube was sealed and placed in a temperature-controlled water bath. When the temperature was equilibriated, in the manner in which the miscibility of the oil [S1] with the fluoroalkane was visually evaluated, a miscibility limit was measured in the temperature range of from room temperature to 90 °C. A lower miscibility limit at temperatures lower than room temperature was likewise measured by cooling with a methanol cooling medium. The results are shown in Table 3 together with the results of Comparative Example 1.
The miscibility of the oil [S2] obtained in Referential Example 2 with HFC-32 (CH2F2) was evaluated in the same manner as in Example 1.

[2] = Kinetic viscosity (E-type rotational viscometer, Cannon-Fenske viscometer)
Excerpt: The kinetic viscosity of the lubricant oil for use in the present invention can be determined by measuring the viscosity by means of various viscometers. As the viscometer to be used for determining the kinetic viscosity, there can be mentioned a capillary viscometer, such as a Ubbellohde viscometer, an Ostward viscometer or a Cannon-Fenske viscometer, a rotational viscometer, and a falling ball viscometer. In the present invention, an E-type rotational viscometer (manufactured by Tokyo Keiki, Japan) and a Cannon-Fenske viscometer were used.

[3] = Insulation breakdown voltage, JIS C2101; settings: oil purified with activated carbon
Description: 100 g of activated carbon (Calgon® CPG, manufactured by Calgon Far East, Japan) dried in vacuum at 150 °C for 3 hours was dispersed in 400 g of R-113 to obtain a suspension, and 200 g of the oil [S1] obtained in Example 40 was added thereto, followed by agitation at room temperature overnight. The activated carbon was removed by filtration and, then, the R-113 was dis tilled off, followed by simple distillation of the oil, thereby obtaining 140 g of a colorless, transparent oil. The oil obtained according to the present purification method was analyzed by gas chromatography. […] Further, each of the volume resistivities of the oil at 20 °C before and after purification was measured in substantially the same manner as in Example 45. […] The above results are shown in Table 13, together with the results of Comparative Examples 17 through 20.

[4] = Volume resistivity, JIS C2101 (insulating oil test); settings: 20 °C; for volume resistivity: oil as obtained in the Referential Example
Description: Volume resistivity of the oil [S1] obtained in Referential Example 1 was measured according to the method of JIS C2101 (insulating oil test).

[5] = Miscibility with mineral oil; settings: weight ratio 50/50
[6] = Evaluation of heat resistance (sealed tube test); settings: 175 °C for 10 days with HFC-134a and steel, copper, aluminum pieces
Description: A glass tube was charged with 0.6 ml of purified oil [S1], HFC-134a and test pieces of steal copper and aluminum, and the glass tube was then sealed to enclose a refrigerant composition therein. The refrigerant composition was heated at 175 °C for 10 days. After the heating, any change of the hue of the refrigerant composition and any change of the surfaces of the metal pieces were examined.
The heat resistances of various compounds of the present invention were evaluated according to the sealed tube test in the same manner as described above. […]

[7] = Miscibility with ester oil; settings: weight ratio 50/50
[8] = Miscibility test with HFC-134a (sealed glass tube, visual evaluation); settings: for Temperature range for being miscible with HFC-134a lower limit temperature (°C) / Temperature range for being miscible with HFC-134a upper limit temperature (°C): 0.2 g oil, about 1.5 g HFC-134a; for Temperature range for being miscible with HFC-134a upper limit temperature (°C): measured up to 90 °C
[9] = Miscibility with polypropylene glycol; settings: weight ratio 50/50; polypropylene glycol number average molecular weight 1000
[10] = Miscibility test with HFC-227ea
Description: as §1
The miscibility of the oil [S2] obtained in Referential Example 2 with HFC-227ea (CF3CHFCF3) was evaluated in the same manner as in Example 1.

[11] = Miscibility test with HFC-125
Description: as §1
The miscibility of the oil [S2] obtained in Referential Example 2 with HFC-125 (CF3CHF2) was evaluated in the same manner as in Example 1.

[12] = Miscibility with fluoroalkanes in general
Excerpt: The present inventors have examined the miscibilities of perfluoropolyethers having the various structures indicated below, inclusive of perfluoropolyethers (trade name: Fomblin Y-06, Y-25 and Y-45, manufactured and sold by Nippon Montedison Co., Ltd., Japan) employed in Examples of Japanese Patent Application Laid-Open Specification Nos. 60-96684 and 1-118598, with a fluoroalkane, such as HFC-134a, HFC-134 and HFC-152a. […] Accordingly, it has been confirmed that such perfluoropolyethers are not suitable as a lubricant for use in refrigeration equipment employing a fluoroalkane, such as HFC-134a, HFC-134 and HFC-152a, as a refrigerant. [drawing 1] wherein each of q1, q2, q3, q4, q5 and q6 is a positive integer.
The miscibilities of commercially available perfluoropolyether and 2,2-bis(4-ethoxyphenyl)propane with each of the above various fluoroalkane were evaluated, in substantially the same manner as in Example 1. The results are shown in Table 3 together with data of the kinetic viscosity at 40 °C.

[13] = mixing ratio [S2]/[S2]+HFC-134a 5 % by weight
[14] = mixing ratio [S2]/[S2]+HFC-134a 10 % by weight
[15] = mixing ratio [S2]/[S2]+HFC-134a 30 % by weight
[16] = mixing ratio [S2]/[S2]+HFC-134a 50 % by weight
[17] = mixing ratio [S2]/[S2]+HFC-134a 80 % by weight

| Compound | lower limit temperature to be miscible with HFC-32 [1] | upper limit temperature to be miscible with HFC-32 [1] | Kinetic viscosity (cSt)40°C [2] | kinetic viscosity at 100 °C [2] | volume resistivity [4] | After sealed tube test IR [6] | After sealed tube test hue [6] | After sealed tube test metal surface [6] | After sealed tube test viscosity [6] | Temperature range for being miscible with HFC-134a lower limit temperature (°C) [8] | Temperature range for being miscible with HFC-134a upper limit temperature (°C) [8] | other results |
| --- | --- | --- | --- | --- | --- | --- | --- | --- | --- | --- | --- | --- |
| CC(C)(c1ccc(OC(F)(F)C(F)Cl)cc1)c1ccc(OC(F)(F)C(F)Cl)cc1 (centres unmarked) [[S1]] | -56 °C | ≥ 90 °C | 56.8 cSt | 5.34 cSt | 3.0 x 10^11 Ωcm | not changed at all | not changed | not changed | not changed at all | – | – | insulation breakdown voltage [3]: ≥ 50 kV/2.5 cm; Volume resistivity (Ωcm) before purification ([4]; oil of Example 40 ([S1]) or Example 44 ([S2]) before adsorbent treatment): 1.0 x 10^11 Ωcm; volume resistivity after purification ([4]; purified with activated carbon (Calgon® CPG)): 2.2 x 10^13 Ωcm; miscibility with mineral oil [5]: completely miscible |
| CC(C)(c1ccc(OC(F)(F)C(F)F)cc1)c1ccc(OC(F)(F)C(F)F)cc1 [[S2]] | ≤ -78 °C | 90 °C | 26.2 cSt | 3.40 cSt | 5.7 x 10^11 Ωcm | not changed | not changed | not changed | not changed | – | – | miscibility with ester oil [7]: completely miscible; Temperature range to be miscible (°C) lower limit temperature [8, 13]: -78 or below °C; Temperature range to be miscible (°C) upper limit temperature [8, 13]: 90 or above °C; Temperature range to be miscible (°C) lower limit temperature [8, 14]: -78 or below °C; Temperature range to be miscible (°C) upper limit temperature [8, 14]: 90 or above °C; Temperature range to be miscible (°C) lower limit temperature [8, 15]: -78 or below °C; Temperature range to be miscible (°C) upper limit temperature [8, 15]: 90 or above °C; Temperature range to be miscible (°C) lower limit temperature [8, 16]: -78 or below °C; Temperature range to be miscible (°C) upper limit temperature [8, 16]: 90 or above °C; Temperature range to be miscible (°C) lower limit temperature [8, 17]: -78 or below °C; Temperature range to be miscible (°C) upper limit temperature [8, 17]: 90 or above °C; miscibility with polypropylene glycol [9]: completely miscible; lower limit temperature to be miscible with HFC-227ea [10]: ≤ -78 °C; upper limit temperature to be miscible with HFC-227ea [10]: 90 °C; lower limit temperature to be miscible with HFC-125 [11]: ≤ -78 °C; upper limit temperature to be miscible with HFC-125 [11]: 90 °C |
| Cc1cc(C(C)(C)c2ccc(OC(F)(F)C(F)F)c(C)c2)ccc1OC(F)(F)C(F)F [[S5]] | – | – | 115 cSt | – | 2.9 x 10^12 Ωcm | not changed | not changed | not changed | not changed | -78 or below °C | 90 or above °C | – |
| CC(C)(c1ccc(OC(F)F)cc1)c1ccc(OC(F)F)cc1 [[S7]] | – | – | 4 cSt | – | – | – | – | – | – | -78 or below °C | 90 or above °C | – |
| CC(C)(c1ccc(OC(F)(F)CF)cc1)c1ccc(OC(F)(F)CF)cc1 [[S9]] | – | – | 50 cSt | – | – | – | – | – | – | -78 or below °C | 90 or above °C | – |
| CCOc1ccc(C(C)(C)c2ccc(OCC)cc2)cc1 [[S14], 2,2-bis(4-ethoxyphenyl)propane] | – | – | – | – | – | – | – | – | – | – | – | miscibility with fluoroalkanes, such as HFC-134a [12]: little miscibility |

From EP0790293A1, “Lubricant” (Asahi Kasei Kogyo Kabushiki Kaisha, priority 1991, dated 1992)
